{"source": "patent US8895019B2", "about": "“Biofilm treatment” (Oral Health Australia Pty Ltd, priority 2007, dated 2014)", "key": {"P. gingivalis W50": {"tested_on": "P. gingivalis W50", "experiment": "Susceptibility of P. gingivalis to Frd inhibiting agents: growth in liquid culture, OD 620 nm over 50 h", "type": "cell-based, Porphyromonas gingivalis", "experimental": "(§1) The effect of Frd inhibiting agents on P. gingivalis was carried out in liquid cultures. Briefly W50 was cultured in 200 mL BHI medium until OD of 0.6 (˜2.9×10^8 cfu/mL). The cells were then resuspended in fresh growth medium to a final concentration of 2.5×10^7 cfu/mL. Oxantel pamonate, morantel citrate and thiabendazole (Sigma) were dissolved in DMSO to achieve stock concentrations of 250 mM. 4 μL of the test solution was then mixed with 196 μL of cell suspension and transferred into 96 well flat bottom plates followed by incubation at 37° C. under anaerobic conditions and monitored hourly over a 50 h period by measuring the optical density of the culture at 620 nm using an iEMS microplate reader (Labsystems OY Research Technologies Division). Mean generation times of P. gingivalis in the presence of different inhibiting agents were calculated by […] where Nt and N0 are cells population at time t and time zero, respectively."}, "[1]": {"tested_on": "P. gingivalis (ATCC 33277) biofilm", "experiment": "Viability of cells dispersed by Oxantel treatment, static 24 well biofilm assay, colony forming units", "type": "cell-based, Porphyromonas gingivalis", "conditions": "especially for the 12.5 μM Oxantel treated biofilm, 30 min", "experimental": "To test the viability of cells dispersed by Oxantel treatment, a static biofilm assay was performed as described above but with slight modifications. Briefly P. gingivalis (ATCC 33277) was allowed to form biofilm in 24 well microplates after 18 h incubation. The free floating planktonic cells were first removed and the biofilm washed once with PBS. 1 mL of 125 uM or 12.5 uM of Oxantel or sterile water […] was added to each well and incubated for 30 min. The number of dispersed P. gingivalis cells that are still viable was determined by cultural analysis on horse blood agar plates after serial dilution in BHI."}, "[2]": {"tested_on": "P. gingivalis ATCC 33277 biofilm", "experiment": "Flowcell biofilm culture and CLSM analysis (COMSTAT)", "type": "cell-based, Porphyromonas gingivalis", "source_text": "The biofilm culture of P. gingivalis ATCC 33277 in flow cells was similar to that previously described with several modifications. A 3-channel flow cell system (Stovall Life Science, USA) was set up in an anaerobic chamber (MK3 Anaerobic workstation; Don Whitley Scientific Ltd.) and was modified with silicon pump tubing (Gilson, France) and stopcocks for inoculation, testing and staining of the bacterial biofilms. All parts were assembled and 0.5% sodium hypochlorite was pumped into the system and left overnight to sterilise the system. Sterile water (200 mL) was then used to flush the system before growth medium addition. The system was inoculated with 1 mL of an exponentially growing P. gingivalis diluted to 0.1 OD600. The system was incubated for 1 h prior to constant flow (0.2 mL/min) of 5× diluted BHI (Oxoid) supplemented with 0.1 g/L cysteine, 1 mg/L heamin and 1 mg/L vitamin K. […] The flow of medium was resumed for another 10 min to wash off any unbound cells due to testing. BacLight stain (Molecular Probes) was then used to stain the biofilm in situ (see below).\nConfocal laser scanning microscopy (CLSM) of the bacterial biofilms was carried out on a Meta 510 Confocal Microscope with an inverted stage (Zeiss). Horizontal (xy) optodigital sections, each 2 μm thick over the entire thickness of the biofilm (z) were imaged using a 63× objective at 512×512 pixel (0.28 μm per pixel), with each frame at 143.86 μm (x)×143.86 μm (y). To determine reproducibility across the biofilm 5 images at random positions from each of two biological replicates were obtained at wavelengths of 488 nm and 568 nm for each channel. All images obtained were analysed using COMSTAT software. Microcolonies were defined as cluster of cells with >500 pixel counts."}, "[3]": {"tested_on": "P. gingivalis ATCC 33277 biofilm", "experiment": "Biofilm formation in static 96 well model, crystal violet stain", "type": "cell-based, Porphyromonas gingivalis", "experimental": "P. gingivalis biofilm formation over 48 h in a static 96 well model was determined as described previously. Briefly P. gingivalis ATCC 33277 cells were resuspended to a final cell density of 2.5×10^7 before mixing with the test substances followed by transferring into 96 well flat bottom plates and incubated anaerobically at 37° C. Assessment of the biofilm mass was carried out at 24 h and 48 h by washing the cells twice with 250 μL of ultra pure water to remove loosely adhered cells followed by drying at 37° C. for 3 h. The dried biofilm was then stained in a solution of 0.1% crystal violet for 15 min and washed 2 times with 250 μL ultra pure water. The crystal violet stain was then dissolved from the biofilm using a solution of 80% ethanol and 20% acetone for 2 min through repeated pipetting before transferring to a new 96 well plate for measurement of the optical density at 620 nm."}, "P. gingivalis ATCC 33277": {"tested_on": "P. gingivalis ATCC 33277", "experiment": "Effect of Oxantel on growth of P. gingivalis ATCC 33277 in liquid culture over 50 h", "type": "cell-based", "conditions": "Porphyromonas gingivalis, ATCC33277; P. gingivalis ATCC 33277, growth over 50 h"}, "[4]": {"experiment": "Solubility limit seen in the growth assay", "type": "physicochemical", "conditions": "growth assay medium (P. gingivalis W50 liquid culture), 37 °C, kinetic from dmso stock, read-out: insolubility (concentration above which insoluble)", "experimental": "as §1"}, "[5]": {"conditions": "12.5 μM Oxantel vs Control, Biological Replicate 1"}, "[6]": {"conditions": "12.5 μM Oxantel, Biological Replicate 1"}, "[7]": {"conditions": "12.5 μM Oxantel, Biological Replicate 2, first channel"}, "[8]": {"conditions": "12.6 μM Oxantel (so in the source), Biological Replicate 2, second channel"}, "[9]": {"conditions": "125 μM Oxantel vs Control, Biological Replicate 1"}, "[10]": {"conditions": "125 μM Oxantel, Biological Replicate 1"}, "[11]": {"conditions": "Biological Replicate 2, based on average of both replicates over the control sample"}, "[12]": {"conditions": "mature biofilm treated with Oxantel (125 μM or 12.5 μM, 30 min) vs control, P<0.01"}, "[13]": {"conditions": "Porphyromonas gingivalis, P. gingivalis W50, growth over 50 h, read-out: MIC"}}, "note": "Where two headings read alike, the source gives them in different places. Marks after values point to notes of the source that are not given here.", "data": [{"smiles": "Cc1ccsc1/C=C/C1=NCCCN1C", "note": "[Morantel]", "values": [{"measurement": "MIC", "setting": "P. gingivalis W50; P. gingivalis W50, growth over 50 h, read-out: MIC", "value": 2800, "unit": "µM"}, {"measurement": "MIC", "setting": "P. gingivalis W50; Porphyromonas gingivalis, W50, 50 h, P. gingivalis W50, growth over 50 h", "value": "~3000", "unit": "µM"}]}, {"smiles": "CN1CCCN=C1/C=C/c1cccc(O)c1", "note": "[Oxantel]", "values": [{"measurement": "viability of cells released from the biofilm", "setting": "[1]", "value": "remained viable"}, {"measurement": "Total biomass", "setting": "[2]; 12.5 μM Oxantel added to 16 h biofilm, Biological Replicate 1, COMSTAT, 3-channel flow cell", "value": "1.26^a μm^3/μm^2"}, {"measurement": "Average microcolony area % reduction", "setting": "[2]; [5]", "value": 37.2, "unit": "%"}, {"measurement": "Average thickness % reduction", "setting": "[2]; [5]", "value": 39.7, "unit": "%"}, {"measurement": "Total biomass % reduction", "setting": "[2]; [5]", "value": 30.1, "unit": "%"}, {"measurement": "Ave microcolonies (by pixel, minimum 500)", "setting": "[2]; [6]", "value": 17.4}, {"measurement": "Average microcolony area", "setting": "[2]; [6]", "value": "147.65^a μm^2"}, {"measurement": "Average thickness", "setting": "[2]; [6]", "value": "0.70^a μm"}, {"measurement": "Surface to biovolume ratio", "setting": "[2]; [6]", "value": "2.04^a μm^2/μm^3"}, {"measurement": "Ave microcolonies (by pixel, minimum 500)", "setting": "[2]; [7]", "value": 18.4}, {"measurement": "Average microcolony area", "setting": "[2]; [7]", "value": "119.571^a μm^2"}, {"measurement": "Average thickness", "setting": "[2]; [7]", "value": "0.911^a μm"}, {"measurement": "Surface to biovolume ratio", "setting": "[2]; [7]", "value": "2.331^a μm^2/μm^3"}, {"measurement": "Total biomass", "setting": "[2]; [7]", "value": "1.451^a μm^3/μm^2"}, {"measurement": "Ave microcolonies (by pixel, minimum 500)", "setting": "[2]; [8]", "value": 19.2}, {"measurement": "Average microcolony area", "setting": "[2]; [8]", "value": "104.881^a μm^2"}, {"measurement": "Average thickness", "setting": "[2]; [8]", "value": "0.891^a μm"}, {"measurement": "Surface to biovolume ratio", "setting": "[2]; [8]", "value": "2.541^a μm^2/μm^3"}, {"measurement": "Total biomass", "setting": "[2]; [8]", "value": "1.621^a μm^3/μm^2"}, {"measurement": "Total biomass", "setting": "[2]; 125 μM Oxantel added to 16 h biofilm, Biological Replicate 1", "value": "1.00^a μm^3/μm^2"}, {"measurement": "Average microcolony area % reduction", "setting": "[2]; [9]", "value": 50.94, "unit": "%"}, {"measurement": "Average thickness % reduction", "setting": "[2]; [9]", "value": 63.2, "unit": "%"}, {"measurement": "Total biomass % reduction", "setting": "[2]; [9]", "value": 44.4, "unit": "%"}, {"measurement": "Ave microcolonies (by pixel, minimum 500)", "setting": "[2]; [10]", "value": 20.8}, {"measurement": "Average microcolony area", "setting": "[2]; [10]", "value": "115.42^a μm^2"}, {"measurement": "Average thickness", "setting": "[2]; [10]", "value": "0.43^a μm"}, {"measurement": "Surface to biovolume ratio", "setting": "[2]; [10]", "value": "2.27^b μm^2/μm^3"}, {"measurement": "Average microcolony area % reduction", "setting": "[2]; [11]", "value": 37.9, "unit": "%"}, {"measurement": "Average thickness % reduction", "setting": "[2]; [11]", "value": 49.9, "unit": "%"}, {"measurement": "Total biomass % reduction", "setting": "[2]; [11]", "value": 42.8, "unit": "%"}, {"measurement": "number of microcolonies", "setting": "[2]; Oxantel treated vs control samples", "value": "no significant difference"}, {"measurement": "biofilm depth", "setting": "[2]; [12]", "value": "significant reduction"}, {"measurement": "size of microcolonies", "setting": "[2]; [12]", "value": "significant reduction"}, {"measurement": "concentration that significantly reduced the biofilm mass at 24 h", "setting": "[3]; ATCC 33277, 24 h biofilm, subMIC", "value": "≥ 0.1", "unit": "µM"}, {"measurement": "concentration necessary for an inhibitory effect on the biofilm mass at 48 h", "setting": "[3]; ATCC 33277, 48 h biofilm", "value": "≥ 3.9", "unit": "µM"}, {"measurement": "MIC", "setting": "P. gingivalis ATCC 33277", "value": 125, "unit": "µM"}, {"measurement": "concentration with positive inhibition of growth", "setting": "P. gingivalis W50; P. gingivalis W50, from the growth curves", "value": "more than 15 μM"}, {"measurement": "MIC", "setting": "P. gingivalis W50; [13]", "value": 112, "unit": "µM"}]}, {"smiles": "c1ccc2[nH]c(-c3cscn3)nc2c1", "note": "[Thiabendazole]", "values": [{"measurement": "solubility", "setting": "[4]", "value": "> 3000", "unit": "µM"}, {"measurement": "concentration required for slight inhibitory effects on the growth", "setting": "P. gingivalis W50; P. gingivalis W50, growth over 50 h", "value": "more than 1 mM"}, {"measurement": "MIC", "setting": "P. gingivalis W50; [13]", "value": "> 3000", "unit": "µM"}]}]}
